Measurements as given in PubChem BioAssay (NCI).
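Values below derive from 48-hour exposures of cells grown in 96-well plates, with endpoints linearly interpolated between the two concentrations bracketing the appropriate inhibition level. At the GI50, growth is halved. TGI: concentration producing complete growth inhibition.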

Columns and labels:
Assay in all cases: NCI anticancer screen, dose series, 48 h
[1] = tested on: SK-MEL-5 melanoma
[2] = tested on: 786-0 renal
[3] = tested on: IGROV1 ovarian
[4] = tested on: SNB-78 CNS
[5] = tested on: HOP-92 NSCLC
[6] = tested on: KM12 colon
[7] = tested on: SK-MEL-28 melanoma
[8] = tested on: MALME-3M melanoma
[9] = tested on: EKVX NSCLC
[10] = tested on: UACC-62 melanoma
[11] = tested on: HCC-2998 colon
[12] = tested on: CCRF-CEM leukemia
[13] = tested on: UACC-257 melanoma
[14] = tested on: RPMI-8226 leukemia
[15] = tested on: LOX IMVI melanoma
[16] = tested on: A498 renal
[17] = tested on: UO-31 renal
[18] = tested on: TK-10 renal
[19] = tested on: U251 CNS
[20] = tested on: HCT-116 colon
[21] = tested on: CAKI-1 renal
[22] = tested on: HOP-18 NSCLC
[23] = tested on: SN12C renal
[24] = tested on: RXF-631 renal
[25] = tested on: COLO 205 colon
[26] = tested on: NCI-H522 lung
[27] = tested on: HT29 colon
[28] = tested on: A549 NSCLC
[29] = tested on: OVCAR-8 ovarian
[30] = tested on: OVCAR-3 ovarian
[31] = tested on: DLD-1 colon
[32] = tested on: K-562 leukemia
[33] = tested on: SW-620 colon
[34] = tested on: SK-OV-3 ovarian
[35] = tested on: DMS 273 small cell lung
[36] = tested on: NCI-H23 lung
[37] = tested on: ACHN renal
[38] = tested on: RXF 393 renal
[39] = tested on: HCT-15 colon
[40] = tested on: LXFL 529 NSCLC
[41] = tested on: SF-539 CNS
[42] = tested on: SNB-75 CNS
[43] = tested on: NCI-H460 lung
[44] = tested on: M19-MEL melanoma
[45] = tested on: SF-295 CNS
[46] = tested on: MOLT-4 leukemia
[47] = tested on: OVCAR-4 ovarian
[48] = tested on: SNB-19 CNS
[49] = tested on: SR leukemia
[50] = tested on: XF 498 CNS
[51] = tested on: M14 melanoma
[52] = tested on: NCI-H226 lung
[53] = tested on: KM20L2 colon
[54] = tested on: SF-268 CNS
[55] = tested on: HOP-62 NSCLC
[56] = tested on: OVCAR-5 ovarian
[57] = tested on: SK-MEL-2 melanoma

In the case of COC1=CC(=C(C#N)C(=Nc2ccccc2)SC)C=C(OC)C1=O, the TGI [1] is reported as 42.7 µM, the TGI [2] is reported as > 100 µM and the TGI [3] is reported as > 100 µM. For the same compound, the TGI [4] was > 100 µM, the TGI [5] was 9.97 µM and the TGI [6] was > 100 µM. The TGI [7] was > 100 µM, the TGI [8] was > 100 µM and the TGI [9] was > 100 µM. For the same compound, the TGI [10] was > 100 µM, the TGI [11] was > 100 µM and the TGI [12] was 43.5 µM. The TGI [13] was > 100 µM, the TGI [14] was 52.2 µM and the TGI [15] was > 100 µM. For the same compound, the TGI [16] was 80 µM, the TGI [17] was > 100 µM and the TGI [18] was > 100 µM. The TGI [19] was 2.62 µM, the TGI [20] was > 100 µM and the TGI [21] was > 100 µM. The TGI [22] was > 100 µM, the TGI [23] was > 100 µM and the TGI [24] was > 100 µM. For the same compound, the TGI [25] was > 100 µM, the TGI [26] was > 100 µM and the TGI [27] was > 100 µM. The TGI [28] was > 100 µM, the TGI [29] was > 100 µM and the TGI [30] was > 100 µM. For the same compound, the TGI [31] was 77.3 µM, the TGI [32] was 63.1 µM and the TGI [33] was > 100 µM. The TGI [34] was > 100 µM, the TGI [35] was > 100 µM and the TGI [36] was > 100 µM. For the same compound, the TGI [37] was > 100 µM, the TGI [38] was 78 µM and the TGI [39] was > 100 µM. For the same compound, the TGI [40] was 36.2 µM, the TGI [41] was > 100 µM and the TGI [42] was > 100 µM. For the same compound, the TGI [43] was > 100 µM, the TGI [44] was > 100 µM and the TGI [45] was > 100 µM. The TGI [46] was 53.1 µM.

CC(=O)CC(=O)Nc1c(C)[c]([Hg][O]C(C)=O)c(C)[c]([Hg][O]C(C)=O)[c]1[Hg][O]C(C)=O was tested, and the GI50 [1] was 2.99 µM, the TGI [1] was 11.3 µM and the GI50 [2] was 10.9 µM. It also gave a TGI [2] of 24.4 µM, a GI50 [3] of 15.4 µM and a TGI [3] of 40.7 µM. It also gave a GI50 [4] of 22.7 µM, a TGI [4] of 58.4 µM and a GI50 [6] of 16.9 µM. It also gave a TGI [6] of 34.8 µM, a GI50 [7] of 12.6 µM and a TGI [7] of 26.3 µM. It also gave a GI50 [8] of 6.56 µM, a TGI [8] of 20.4 µM and a GI50 [47] of 15.6 µM. The TGI [47] was 30.6 µM, the GI50 [9] was 20.6 µM and the TGI [9] was 41.3 µM. For the same compound, the GI50 [10] was 11.8 µM, the TGI [10] was 24.1 µM and the GI50 [11] was 17.6 µM. For the same compound, the TGI [11] was 32.6 µM, the GI50 [12] was 4.01 µM and the TGI [12] was 49.5 µM. The GI50 [13] was 14.4 µM, the TGI [13] was 28.5 µM and the GI50 [48] was 2.47 µM. For the same compound, the TGI [48] was 6.61 µM, the GI50 [49] was 5.31 µM and the TGI [49] was > 100 µM. For the same compound, the GI50 [16] was 15.3 µM, the TGI [16] was 28.8 µM and the GI50 [50] was 4.38 µM. The TGI [50] was 15.6 µM, the GI50 [17] was 22.4 µM and the TGI [17] was 40 µM. For the same compound, the GI50 [18] was 13 µM, the TGI [18] was 25.7 µM and the GI50 [19] was 11.7 µM. It also gave a TGI [19] of 24.6 µM, a GI50 [51] of 12.7 µM and a TGI [51] of 29.8 µM. For the same compound, the GI50 [20] was 18.2 µM, the TGI [20] was 41.1 µM and the GI50 [21] was 18.6 µM. It also gave a TGI [21] of 32.6 µM, a GI50 [23] of 17.5 µM and a TGI [23] of 33.3 µM. For the same compound, the GI50 [24] was 2.39 µM, the TGI [24] was 7.75 µM and the GI50 [25] was 33.3 µM. For the same compound, the TGI [25] was > 100 µM, the GI50 [26] was 10.4 µM and the TGI [26] was 35.8 µM. The GI50 [52] was 29.4 µM, the TGI [52] was 56.5 µM and the GI50 [27] was 12.2 µM. For the same compound, the TGI [27] was 30.5 µM, the GI50 [28] was 17.1 µM and the TGI [28] was 34.2 µM. For the same compound, the GI50 [29] was 10.9 µM, the TGI [29] was 24.4 µM and the GI50 [30] was 12.8 µM. It also gave a TGI [30] of 25.5 µM, a GI50 [31] of 13.6 µM and a TGI [31] of 51.1 µM. For the same compound, the GI50 [53] was 18.8 µM, the TGI [53] was 48.2 µM and the GI50 [32] was 4 µM. The TGI [32] was > 100 µM, the GI50 [54] was 15.4 µM and the TGI [54] was 35.4 µM. The GI50 [33] was 10 µM, the TGI [33] was 27.4 µM and the GI50 [34] was 20.9 µM. It also gave a TGI [34] of 35.3 µM, a GI50 [35] of 18.4 µM and a TGI [35] of 50.4 µM. For the same compound, the GI50 [36] was 10.6 µM, the TGI [36] was 24.5 µM and the GI50 [37] was 14.2 µM. For the same compound, the TGI [37] was 27.3 µM, the GI50 [55] was 20.8 µM and the TGI [55] was 36.4 µM. It also gave a GI50 [38] of 3.44 µM, a TGI [38] of 16.2 µM and a GI50 [39] of 15.1 µM. For the same compound, the TGI [39] was 35.7 µM, the GI50 [40] was 6.54 µM and the TGI [40] was 20.7 µM. For the same compound, the GI50 [41] was 18.1 µM, the TGI [41] was 37.1 µM and the GI50 [42] was 12.9 µM. It also gave a TGI [42] of 25.9 µM, a GI50 [44] of 15.4 µM and a TGI [44] of 36.5 µM. The GI50 [56] was 28.9 µM, the TGI [56] was 71.8 µM and the GI50 [57] was 16.1 µM. It also gave a TGI [57] of 31.7 µM, a GI50 [45] of 18.5 µM and a TGI [45] of 36.2 µM. For the same compound, the GI50 [46] was 10.3 µM and the TGI [46] was > 100 µM.
